This note sets out measurements from US8674113B2, “Compounds” (Boehringer Ingelheim International GmbH, priority 2010, dated 2014).

Experiment [1] addresses recombinant human mPGES-1 (Homo sapiens (Human), UniProt O14684). Description: mPGES-1 enzyme assay (HTRF detection of PGE2). The format is biochemical. On the procedure:
Microsomes from Rosetta E. coli bacteria expressing recombinant human mPGES-1 can be derived as described below:
Inoculate 5 ml LB with Ampicilin (50 μg/ml) and Chloramphenicol (34 μg/ml) with bacteria from freeze culture. Incubate 8 h at 37° C. with 200 rpm. Thereafter, inoculate 500-1000 ml LB containing Amp and Chloro with the 5 ml on culture and grow to OD640 of 0.8-1.0. Chill the culture to +4° C. before induction. Induce the culture with IPTG at a final concentration of 400 μM. Express the protein at room temp 18-23° C. with 200 rpm shaking over night.
The following steps can be performed on the following day: • 1. Spin down the cells in 250 ml centrifuge flasks for 15 min at 7000 rpm (Beckmann Coulte Avanti J-E centrifuge) • 2. Dissolve the pellet from 250 ml culture in 12.5 ml homogenization buffer • 3. (15 mM Tris-HCL pH8, 1 mM EDTA pH8, […], 2.5 mM GSH, 1 Tablet Protease inhibitor per 50 ml buffer) • 4. Disintegrate the cells by sonication, 5×10 seconds at 48% amplitude of a 750 W sonifier • 5. Add 2.5 ml MgCl2 (100 mM) and DNase 12.5 μl (0.8 mg/ml) and incubate on ice for 30 min • 6. Spin down the bacteria debris and save the supernatant, 7000 rpm for 15 min • 7. Isolate the protein containing membranes in the supernatant by ultracentrifugation 120000×g for 2 hour at 4° C. (Sorvall T880 rotor). • 8. Discard the supernatant and dissolve the pellet in 20 mM Potassium phosphate buffer pH7.4 (KH2PO4 and K2HPO4) buffer by sonication (5×10 s, 30% of a 50 W sonifier) and aliquot the enzyme and store aliquots at −80° C.
Before each experiment is performed an aliquot of the enzyme is thawed and it can then be dissolved in 0.1 M Potassium phosphate buffer pH7.4 (KH2PO4 and K2HPO4) buffer containing 2.5 mM GSH.
The aim of this assay is to determine the affinity of a test compound for the mPGES-1 enzyme.
47 μl of recombinant human mPGES-1 (˜0.5 μg protein/well) containing microsomal suspension in a buffer containing GSH, (2.5 mmol/L L-Glutathione reduced, dissolved in 0.1 mol/L Phosphat Buffer pH 7.4) is dispensed in a 384-well plate and thereafter 1 μl of the test compound(s) is/are added and incubated for 25 minutes at room temperature. The enzyme reaction is started by the addition of 2 ul PGH2 (final conc 2 μM) disolved in water-free Diglyme. After 60 seconds the reaction is terminated by addition of a stop solution containing FeCl2 (10 μL 0.074 mol/l FeCl2). The samples are diluted between 1:25 in PBS (Phosphate Buffered Saline). 10 μl of the diluted samples are transferred to 384-well low volume plate. In order to quantify the amount of PGE2 that has been formed, a homogenous time resolved fluorescent (HTRF) detecting of PGE2 has been performed using a commercially available kit from Cisbio according to the manufactures recommendation. This HTRF-based assay has been described in detail (see: Goedken et al., J Biomol Screen, 2008, 13(7), 619-625). Briefly, the diluted samples are mixed with 5 μl PGE2-d2 conjugate and 5 μl anti-PGE2 cryptate conjugate. After an incubation period of the plates over night, the fluorescence is measured by the use of an appropriate microplate reader.
The fluorescence of Europium cryptate (maxex=307 nm, maxem=620 nm) and d2-PGE2 (maxex=620 nm, maxem=665 nm) are measured.
The extent of the specific HTRF is measured as a ratio of the emission intensity at 665 nm vs. that at 620 nm at an excitation puts of 320 nm. The quantification plate contains also wells with different concentrations of PGE2 as calibration curve for the calculation of the PGE2 concentrations from the HTRF ratio values.
From all mPGES enzyme assay the background is subtracted and the IC50 is calculated over a nonlinear regression with conventional software.
Background: Time-resolved FRET reads energy transfer from a long-lived donor to a nearby acceptor.

Experiment [2] addresses mPGES-1 in A549 cells (Homo sapiens (Human), UniProt O14684). The experiment is described as follows: A549 cell-based assay (PGE2 formation, 50% human serum). The essentials:
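PGE2 release, read by HTRF and set to 100% for vehicle, gave IC50s from 6-8 point titrations. Human A549 cells were exposed to compound for 20-24 h in medium with 50% human serum, with IL-1β (5 ng/ml) and arachidonic acid (10 nM) as stimulus.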

The mark [3] stands for this setting: recombinant human mPGES-1 microsomes, PGH2 2 μM, 60 seconds, read-out: mPGES-1 inhibitory effect IC50 in the enzyme assay.
Setting [4] is: IL-1β 5 ng/ml, 10 nM arachidonic acid, 20-24 h, read-out: mPGES-1 inhibitory effect IC50 in the cell assay.

SMILES strings stand for the structures. pIC50: −log10 of the molar value. Where two headings read alike, the source gives them in different places.

Sequence of recombinant human mPGES-1 (O14684 whole entry): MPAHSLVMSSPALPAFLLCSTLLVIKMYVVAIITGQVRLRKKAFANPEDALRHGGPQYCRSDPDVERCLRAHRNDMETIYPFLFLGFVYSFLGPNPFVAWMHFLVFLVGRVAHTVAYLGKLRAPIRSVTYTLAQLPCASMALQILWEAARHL
Sequence of mPGES-1 in A549 cells (O14684 whole entry): as above

In general, pIC50 refers to the IC50 on a negative log10 scale, so that one unit is a factor of ten. As for `Cn1c(Nc2c(Cl)ccc(CNC(=O)C(C)(C)C)c2Cl)nc2cc(C(=O)N[C@H]3CC[C@H](C(F)(F)F)CC3)c(N3CCN(C4CC4)CC3)cc21` [Example 108], the values for the pIC50 in experiment [1] (setting [3]) and in experiment [2] (setting [4]) were 9.00 and greater than 9.00, respectively.
For the molecule `CN(CC(C)(C)O)c1cc2c(cc1C(=O)N[C@H]1CC[C@H](C(F)(F)F)CC1)nc(Nc1c(Cl)ccc(CNC(=O)C(C)(C)C)c1Cl)n2C` [Example 109], the pIC50 in experiment [1] (setting [3]) was 8.70; in experiment [2] (setting [4]), 9.00.
Take `Cn1c(Nc2c(Cl)ccc(CNC(=O)C(C)(C)C)c2Cl)nc2cc(C(=O)NCC(F)(F)C(F)(F)F)c(N3CCOCC3)cc21` [Example 68]: the values for the pIC50 in experiment [1] (setting [3]) and in experiment [2] (setting [4]) were 8.40 and 9.00, respectively.
`CN(c1cc2c(cc1C(=O)N[C@H]1CC[C@H](C(F)(F)F)CC1)nc(Nc1c(Cl)ccc(CNC(=O)C(C)(C)C)c1Cl)n2C)C1CCC1` [Example 91]: the pIC50 was 8.40 in experiment [1] (setting [3]) and greater than 9.00 in experiment [2] (setting [4]).
Consider `Cn1c(Nc2c(Cl)ccc(CNC(=O)C(C)(C)C)c2Cl)nc2cc(C(=O)N[C@H]3CC[C@H](C(F)(F)F)CC3)c(N3CCOCC3)cc21` [Example 67], for which the values for the pIC50 in experiment [1] (setting [3]) and in experiment [2] (setting [4]) were 8.40 and 8.70, respectively.
In the case of `Cn1c(Nc2c(Cl)ccc(CNC(=O)[C@](C)(O)C(F)(F)F)c2Cl)nc2cc(C(=O)Nc3ccc(F)c(Cl)c3)c(N3CCC(C(F)(F)F)CC3)cc21` [Example 234], the values for the pIC50 in experiment [1] (setting [3]) and in experiment [2] (setting [4]) were 8.51 and 8.10, respectively.
For `Cn1c(Nc2c(Cl)ccc(CNC(=O)C(C)(C)C)c2Cl)nc2cc(C(=O)NCC(F)(F)C(F)(F)F)c(N3CCC(C(F)(F)F)CC3)cc21` [Example 53], the pIC50 in experiment [1] (setting [3]) was 8.70; in experiment [2] (setting [4]), 9.00.
Consider `CN(c1cc2c(cc1C(=O)NCCC(F)(F)F)nc(Nc1c(Cl)ccc(CNC(=O)C(C)(C)F)c1Cl)n2C)C1CCC1` [Example 149], for which the pIC50 in experiment [1] (setting [3]) and in experiment [2] (setting [4]) was 8.52 each time.
Consider `Cn1c(Nc2c(Cl)ccc(CNC(=O)C(C)(C)C(F)(F)F)c2Cl)nc2cc(C(=O)NC3CC(F)(F)C3)c(N3CCC(C(F)(F)F)CC3)cc21` [Example 257], for which the pIC50 in experiment [1] (setting [3]) is 8.72; in experiment [2] (setting [4]), 8.46.
Turning to `CC(C)(C)C(=O)NCc1ccc(Cl)c(Nc2nc3cc(C(=O)N[C@H]4CC[C@H](C(F)(F)F)CC4)c(N4CC[C@@H](F)C4)cc3n2CC(F)F)c1Cl` [Example 79], the pIC50 was 8.52 in experiment [1] (setting [3]) and 9.00 in experiment [2] (setting [4]).
Turning to `CC(C)(C)C(=O)NCc1ccc(Cl)c(Nc2nc3cc(C(=O)NCC(F)(F)F)c(N4CCC(F)CC4)cc3[nH]2)c1Cl` [Example 11], the pIC50 in experiment [1] (setting [3]) and in experiment [2] (setting [4]) was 8.52 in each case.
Take `Cc1nc(C(F)(F)F)c(CNC(=O)c2cc3nc(Nc4c(Cl)ccc(CNC(=O)C(C)(C)C)c4Cl)n(C)c3cc2N2CCC(C(F)(F)F)CC2)s1` [Example 158]: the pIC50 in experiment [1] (setting [3]) and in experiment [2] (setting [4]) was 8.40 in each case.
As to `Cn1c(Nc2c(Cl)ccc(CNC(=O)C(C)(C)C)c2Cl)nc2cc(C(=O)Nc3cccc(C(F)(F)F)n3)c(N3CCC(C(F)(F)F)CC3)cc21` [Example 55], the pIC50 in experiment [1] (setting [3]) is 8.70; in experiment [2] (setting [4]), 8.30.
Take `Cn1c(Nc2c(Cl)ccc(CNC(=O)C(C)(C)C)c2Cl)nc2cc(C(=O)NC3(c4ccc(F)cc4)CC3)c(N3CCC(F)(F)C3)cc21` [Example 37]: the pIC50 in experiment [1] (setting [3]) was 8.30; in experiment [2] (setting [4]), 8.52.
In the same order, the values of `Cn1c(Nc2c(Cl)ccc(CNC(=O)C(C)(C)C)c2Cl)nc2cc(C(=O)N[C@H]3CC[C@H](C(F)(F)F)CC3)c(N3CC4(COC4)C3)cc21` [Example 93] are 8.52 and 7.77.
Consider `Cn1c(Nc2c(Cl)ccc(CNC(=O)C(C)(C)C(F)(F)F)c2Cl)nc2cc(C(=O)N[C@H]3CC[C@H](C(F)(F)F)CC3)c(N3CCC(C(F)(F)F)CC3)cc21` [Example 250], for which the results for the negative-log IC50 (pIC50) in experiment [1] (setting [3]) and in experiment [2] (setting [4]) were 8.77 and 9.00, respectively.
Consider `Cn1c(Nc2c(Cl)ccc(CNC(=O)C(C)(C)CO)c2Cl)nc2cc(C(=O)NCCC(F)(F)F)c(N3CCC(C(F)(F)F)CC3)cc21` [Example 175], for which the pIC50 is 8.40 in experiment [1] (setting [3]) and 8.15 in experiment [2] (setting [4]).
As for `Cn1c(Nc2c(Cl)ccc(CNC(=O)C(C)(C)C)c2Cl)nc2cc(C(=O)N[C@H]3CC[C@H](C(F)(F)F)CC3)c(N3CCC(F)(F)CC3)cc21` [Example 69], the pIC50 in experiment [1] (setting [3]) is 8.70; in experiment [2] (setting [4]), 9.00.
In the same order, the values of `Cn1c(Nc2c(Cl)ccc(CNC(=O)[C@@](C)(O)C(F)(F)F)c2Cl)nc2cc(C(=O)Nc3ccc(F)c(Cl)c3)c(N3CC[C@@H](F)C3)cc21` [Example 247] are 8.52 and 8.52.
The like results for `CC(C)(O)Cn1c(Nc2c(Cl)ccc(CNC(=O)C(C)(C)C)c2Cl)nc2cc(C(=O)N[C@H]3CC[C@H](C(F)(F)F)CC3)c(N3CCC(C(F)(F)F)CC3)cc21` [Example 165] were, in that order, 8.70 and 8.52.
The like results for `Cn1c(Nc2c(Cl)ccc(CNC(=O)C(C)(C)C(F)(F)F)c2Cl)nc2cc(C(=O)N[C@H]3CC[C@@H](C(F)(F)F)CC3)c(N3CCC(C(F)(F)F)CC3)cc21` [Example 254] were, in that order, 8.51 and 9.00.
`Cn1c(Nc2c(Cl)ccc(CNC(=O)C(C)(C)C)c2Cl)nc2cc(C(=O)N[C@H]3CC[C@H](C(F)(F)F)CC3)c(N3CCC3)cc21` [Example 96]: the pIC50 in experiment [1] (setting [3]) is 7.80; in experiment [2] (setting [4]), 7.68.
In the case of `Cn1c(Nc2c(Cl)ccc(CNC(=O)C(C)(C)C)c2Cl)nc2cc(C(=O)N[C@H]3CC[C@H](C(F)(F)F)CC3)c(N3CC4COCC4C3)cc21` (stereo partly drawn) [Example 102], the results for the pIC50 in experiment [1] (setting [3]) and in experiment [2] (setting [4]) were 8.70 and 8.82, respectively.
Regarding `Cn1c(Nc2c(Cl)ccc(CNC(=O)C(C)(C)C(F)(F)F)c2Cl)nc2cc(C(=O)NCCC(F)(F)F)c(N3CCC(C(F)(F)F)CC3)cc21` [Example 261], the pIC50 in experiment [1] (setting [3]) is 8.54; in experiment [2] (setting [4]), 8.80.
As to `Cn1c(Nc2c(Cl)ccc(CNC(=O)C(C)(C)C)c2Cl)nc2cc(C(=O)NCC3CC3)c(N3CCC(F)(F)C3)cc21` [Example 45], the pIC50 in experiment [1] (Table C comparison of selected benzimidazoles, read-out: Enzym IC50) was 8.30; in experiment [1] (setting [3]), 8.30; in experiment [2] (setting [4]), 8.15; in experiment [2] (Table C comparison of selected benzimidazoles, read-out: Cell IC50), 8.15.
`Cn1c(Nc2c(Cl)ccc(CNC(=O)C(C)(C)C)c2Cl)nc2cc(C(=O)N[C@H]3CC[C@H](C(F)(F)F)CC3)c(N3CCn4ncnc4C3)cc21` [Example 133]: the values for the pIC50 in experiment [1] (setting [3]) and in experiment [2] (setting [4]) were 8.52 and 8.00, respectively.
Consider `Cn1c(Nc2c(Cl)ccc(CNC(=O)C(C)(C)C)c2Cl)nc2cc(C(=O)N[C@H]3CC[C@H](C(F)(F)F)CC3)c(N3CC4CCC4C3)cc21` (stereo partly drawn) [Example 122], for which the pIC50 in experiment [1] (setting [3]) was 8.52; in experiment [2] (setting [4]) it was 9.00.
In the same order, the values of `Cn1ccnc1CNc1cc2c(cc1C(=O)N[C@H]1CC[C@H](C(F)(F)F)CC1)nc(Nc1c(Cl)ccc(CNC(=O)C(C)(C)C)c1Cl)n2C` [Example 113] are 8.10 and 7.21.
In the same order, the values of `Cn1c(Nc2c(Cl)ccc(CNC(=O)c3c(O)cccc3F)c2Cl)nc2cc(C(=O)NCCC(F)(F)F)c(N3CCC(C(F)(F)F)CC3)cc21` [Example 179] are 8.70 and less than 7.00.
